Reference: publication PMC9423655, “Huntington’s disease phenotypes are improved via mTORC1 modulation by small molecule therapy” (PLoS ONE, 2022)

Experiments:
medial prefrontal cortex = test system: medial prefrontal cortex; design: method as in PMID 30990795; settings: cited from earlier work
Sestrin2 = test system: Sestrin2; design: method as in PMID 30858438, PMID 30990795; settings: cited from earlier work
mTORC1 [1] = test system: mTORC1; design: method as in PMID 30858438, PMID 30990795; settings: cited from earlier work
[2] = target: T1, Sestrin2/GATOR2 interaction (Homo sapiens, UniProt P58004); experiment: Intact cells-based Sestrin2/GATOR2 protein-protein interaction assay, Flag-WDR24 293T cells; assay type: cell-based; settings: leucine-starved flag-WDR24 HEK-293T cells, 10 minutes, S1C Fig
T1 construct: endogenous in cells; host or cells: Flag-WDR24 293T (HEK293T) cells
T1 sequence (P58004 1-480): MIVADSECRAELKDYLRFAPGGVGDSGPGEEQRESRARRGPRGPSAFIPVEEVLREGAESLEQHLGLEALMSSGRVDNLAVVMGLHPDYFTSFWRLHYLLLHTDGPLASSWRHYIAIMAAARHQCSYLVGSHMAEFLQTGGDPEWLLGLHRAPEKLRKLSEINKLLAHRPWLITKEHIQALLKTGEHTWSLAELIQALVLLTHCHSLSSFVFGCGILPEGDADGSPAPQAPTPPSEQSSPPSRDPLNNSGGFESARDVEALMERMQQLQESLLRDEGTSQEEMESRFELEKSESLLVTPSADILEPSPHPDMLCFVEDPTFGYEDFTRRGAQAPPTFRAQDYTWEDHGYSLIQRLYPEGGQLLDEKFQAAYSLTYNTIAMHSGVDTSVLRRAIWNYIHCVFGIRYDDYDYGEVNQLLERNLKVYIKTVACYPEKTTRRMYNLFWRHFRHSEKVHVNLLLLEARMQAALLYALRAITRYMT
Description: Flag-WDR24 293T cells were washed and placed in leucine-free DMEM supplemented 10% dFBS for 50 minutes followed by treatment with NV-5297, leucine or vehicle for 10 minutes. Cells were rinsed once with ice-cold PBS and immediately lysed with Triton lysis buffer (1% Triton, 10 mM β-glycerol phosphate, 10 mM pyrophosphate, 40 mM Hepes pH 7.4, 2.5 mM MgCl2 and 1 tablet of EDTA-free protease inhibitor). The cell lysates were cleared by centrifugation at 13,200 rpm at 4°C in a microcentrifuge for 10 minutes. Prior to immunoprecipitations, an aliquot of lysate was taken for SDS-PAGE and immunoblotting for pS6K1, S6K1 and tubulin. For anti-FLAG immunoprecipitations, the FLAG-M2 affinity gel was washed 3 times with Triton lysis buffer, and 30 μl of a 50/50 slurry of the FLAG-M2 affinity gel was then added to approximately 2 mg of clarified cell lysates and incubated with rotation for 3 hours at 4°C. Following immunoprecipitation, the beads were washed one time with Triton wash buffer containing 500 mM NaCl. Immunoprecipitated proteins were denatured, resolved by SDS-PAGE, and analyzed by immunoblotting.
Next, Sestrin2/GATOR2 protein-protein interactions in response to NV-5297 were measured using cell-free assays and in vitro. For this, HEK293T cells stably expressing flag-WDR24, a component of GATOR2 [44], were used. The cell-free assays utilized Sestrin2/GATOR2 complexes immunoprecipitated from amino acid-starved cells with an anti-flag antibody.

SesnTKO HEK293T cells = experiment: mTORC1 activation (p70S6K1) in HEK293T cells null for all three Sestrin isoforms; assay type: cell-based; settings: leucine-starved 50 minutes, treatment 10 minutes
Description: (§1) All cell lines were cultured in DMEM (Corning, #MT10013CV) supplemented with 10% heat-inactivated FBS (Gibco, #16140–071). All cell lines were maintained at 37°C and 5% CO2. For amino acid starvation, cells were rinsed once with and incubated Amino acid-free RPMI (US Biologicals, #R8999-04A) supplemented with 10% dialyzed FBS (Gibco, #26400044) for 50 min followed by treatment with NV-5297, leucine, or vehicle for 10 minutes. For leucine starvation, cells were rinsed once with and incubated in leucine-free DMEM (AthenaES, #0420) supplemented with 10% dialyzed FBS (Gibco, #26400044) for 50 minuted followed by treatment with NV-5297, leucine, or vehicle for 10 minutes.
(§2) To ascertain if Sestrins and the GATOR pathway are required for NV-5297 activity, we tested mTORC1 activation in cells null for either all three Sestrin isoforms [SesnTKO] or for the GATOR1 component Npr13 [Npr13KO] [44]. […]
(§3) (A) Activation of the mTORC1 pathway by NV-5297. […] Representative immunoblots of ^T389pS6K1 and quantification of the normalized level of ^T389pS6K1 from 8 independent experiments (F) show TORC1 activity in unedited HEK-293T cells, HEK-293T cells deficient for Sestrin 1 (Sesn1), 2 (Sesn2) and 3 (Sesn3) (D) or HEK-293T cells deficient for the GATOR1 component Nprl3 (E) after 50 minutes leucine starvation followed by the addition of vehicle, NV-5297 or leucine for 10 minutes. […]

mTORC1 [3] = experiment: mTORC1 activation (pS6K1 immunoblot) in leucine-starved HEK293T cells; assay type: cell-based; settings: HEK293T cells starved of leucine 50 minutes, treatment 10 minutes
Description: as §1
as §3, with “NV-5297. […] (B) NV-5297 disrupts Sestrin2/GATOR2 in the in vitro Sesn2/WDR24 protein-protein interaction assay in a dose-dependent manner.” for “NV-5297.”

Npr13KO HEK293T cells = experiment: mTORC1 activation (p70S6K1) in HEK293T cells null for GATOR1 component Nprl3; assay type: cell-based; settings: leucine-starved 50 minutes, treatment 10 minutes
Description: as §1, §2, §3

CC(C)(C[C@H](N)C(=O)O)C(F)F [NV-5138]
synaptic formation in the medial prefrontal cortex (medial prefrontal cortex): improved synaptic formation | Sestrin2 binding (Sestrin2): binds Sestrin2 | mTORC1 activation in peripheral tissues and CNS (mTORC1 [1]): transiently activates mTORC1

CC(C)C[C@H](N)C(=O)O [leucine, reference compound]
p70S6K1 (T389 pS6K1) level [2]: Dose-dependent activation of mTORC1 | p70S6K1 levels (SesnTKO HEK293T cells): remained unchanged | mTORC1 activation measured by phosphorylated S6K1 (pS6K1 / p70S6K1) (mTORC1 [3]): activates mTORC1 in leucine-starved HEK293T cells in a dose-dependent manner | p70S6K1 levels (Npr13KO HEK293T cells): remained unchanged
